No end group written: not given here.
Assays:
[1] = system: BMP-12; experiment: Binding of BMP-12 to peptide-coupled affinity resins in 96 well filter plate
Protocol: The coupled resins, plus an unconjugated resin for use as a control, were suspended in 16% ethanol, 150 mM NaCl, and 20 mM Tris buffer at pH 7.5 at a 25% v/v ratio (e.g., 25% ethanol, 75% Tris buffer). A Tecan liquid-handling robot was employed to aliquot 200 µL of each slurry into one of eight rows of a 96 well polystyrene filter plate (0.45 µm hydrophilic filters, Whatman catalog number 770-1806). Spinning at 1200 g for 3 min removed the liquid phase, leaving 50 µL of wet resin on the filters. The resins were then equilibrated with the loading buffers listed in Table 6 (K is a coefficient characterizing the strength of protein binding to a particular resin in a particular buffer). […] The resins were loaded by transferring 150 µL from the load plate to the filter plate and then incubating 20 min on a shaking platform to facilitate binding. The filter plate was spun down and the filtrate collected in a 96 well UV plate. The protein concentration in the filtrate, or flow-through, was calculated as (A280-A320)/1.3. The filter plate was then washed with 150 µL of 100 mM acetic acid, followed by 150 µL of 4M guanidine-HCl and 50 mM sodium acetate at pH 4.0. The protein concentration was measured in the new filtrate as described above. […] However, for peptides 750 and 751, the binding was strong in 25 mM MES at pH 6 but weak in 50 mM acetic acid with 0.1 M NaCl at pH 3.0, which can allow an efficient binding-elution process without the need for chaotrops or organic reagents. Flow-through and acetic acid elution samples from column 4 of the plate (loaded with MES pH 6) were analyzed on a gel (Figure 14).

[2] = system: BMP-3; experiment: Purification of BMP-3 on immobilized finger 1 peptide column, comparison of ligands; format: binding; conditions: compared with the BMP-2 mutant peptide
Excerpt: ([…] […]) was used to purify BMP-3 as in Example 1. […] Less of the propeptide fragment eluted than in Example 6.

[3] = 50 mM acetic acid with 0.1 M NaCl at pH 3.0

Row | Substance | binding of BMP 12 by coupled resin ([1]; loading buffers 1-5) | binding of BMP 12 by coupled resin ([1]; 25 mM MES at pH 6) | binding of BMP 12 by coupled resin [1, 3] | also measured
1 | Ac-LYVDFSDVGWNDWIVAPPGYHAFYSHGEK [Peptide 747] | high affinity |  |  | 
2 | Ac-RDLGWQDWIIAPEGYAAFYSDGEK [Peptide 748] | high affinity |  |  | 
3 | KELGWDDWIIAPLDYEAYHCEGLC [BMP12 Fing1 WT] |  |  |  | effectiveness of immobilized ligand [2]: less effective than the BMP-2 mutant

The next lines start with results.

Row | binding of BMP 12 by coupled resin ([1]; loading buffers 1-5) | binding of BMP 12 by coupled resin ([1]; 25 mM MES at pH 6) | binding of BMP 12 by coupled resin [1, 3] | Substance | also measured
4 | high affinity |  |  | Ac-ELGWDDWIIAPLDYEAYHSEGLK [Peptide 749] | 
5 |  | strong | weak | Ac-SDVGWNDWIVAPPGYHAFYCHGEK [Peptide 750] | 
6 |  | strong | weak | Ac-SDVGWNDWIVAPPGYHAFYSHGEK [Peptide 751] | 

Source: EP2377876A1, “Use of proteins and peptides of the TGF-BETA superfamily for purification and therapeutic methods” (Wyeth LLC, priority 2006, dated 2011)
